Reference: ChEMBL document CHEMBL1909046, “DrugMatrix in vitro pharmacology data”

Legend:
[1] = DRUGMATRIX: Sigma2 radioligand binding (ligand: [3H] Ifenprodil); type: cell membranes, Rattus norvegicus, Wistar, Brain, Membrane; conditions: Not Active = under 50% inhibition at 10 µM
[2] = molecular target: Sodium-dependent dopamine transporter (Homo sapiens, UniProt Q01959); test: DRUGMATRIX: Dopamine Transporter radioligand binding (ligand: [125I] RTI-55); type: cell membranes, CHO-K1, Membrane; conditions: cho-k1; Not Active = under 50% inhibition at 10 µM
Sodium-dependent dopamine transporter, sequence (Q01959 whole entry): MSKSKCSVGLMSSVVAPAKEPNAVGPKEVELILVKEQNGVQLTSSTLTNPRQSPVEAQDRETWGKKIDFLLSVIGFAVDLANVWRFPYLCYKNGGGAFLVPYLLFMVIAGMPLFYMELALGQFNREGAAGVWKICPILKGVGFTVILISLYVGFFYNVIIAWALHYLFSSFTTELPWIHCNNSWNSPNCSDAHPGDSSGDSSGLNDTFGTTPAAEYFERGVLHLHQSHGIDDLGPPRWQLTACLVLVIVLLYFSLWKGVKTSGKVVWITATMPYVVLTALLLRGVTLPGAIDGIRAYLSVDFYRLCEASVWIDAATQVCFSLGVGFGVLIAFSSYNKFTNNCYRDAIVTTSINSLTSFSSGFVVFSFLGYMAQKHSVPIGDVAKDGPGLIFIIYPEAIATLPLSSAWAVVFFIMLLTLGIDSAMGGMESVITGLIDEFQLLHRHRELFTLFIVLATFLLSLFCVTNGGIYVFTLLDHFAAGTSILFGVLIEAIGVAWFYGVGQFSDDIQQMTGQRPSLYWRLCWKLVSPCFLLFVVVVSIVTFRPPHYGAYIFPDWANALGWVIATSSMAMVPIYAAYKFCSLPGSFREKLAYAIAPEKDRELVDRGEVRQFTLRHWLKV

[3] = DRUGMATRIX: Leukotriene, BLT (LTB4) radioligand binding (ligand: [3H]LTB4); type: cell membranes, Membrane; conditions: u-937; Not Active = under 50% inhibition at 10 µM
[4] = DRUGMATRIX: Phosphodiesterase PDE4 enzyme inhibition (substrate: [3H]cAMP + cAMP); conditions: u-937; Not Active = under 50% inhibition at 10 µM
[5] = molecular target: Protein kinase C alpha type (Homo sapiens, UniProt P17252); type: cell-based; conditions: sf9;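 further: inhibition of PKCalpha kinase activity measured in an enzyme assay with histone as the phosphorylation substrate; in other assays of this panel Not Active means under 50% inhibition at 10 µM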
[6] = molecular target: Mitogen-activated protein kinase 1 (Homo sapiens, UniProt P28482); test: DRUGMATRIX: Protein Serine/Threonine Kinase, ERK2 enzyme inhibition (substrate: Myelin Basic Protein); parameters: species or system Escherichia coli; conditions: Not Active = under 50% inhibition at 10 µM
Mitogen-activated protein kinase 1, sequence (P28482 whole entry): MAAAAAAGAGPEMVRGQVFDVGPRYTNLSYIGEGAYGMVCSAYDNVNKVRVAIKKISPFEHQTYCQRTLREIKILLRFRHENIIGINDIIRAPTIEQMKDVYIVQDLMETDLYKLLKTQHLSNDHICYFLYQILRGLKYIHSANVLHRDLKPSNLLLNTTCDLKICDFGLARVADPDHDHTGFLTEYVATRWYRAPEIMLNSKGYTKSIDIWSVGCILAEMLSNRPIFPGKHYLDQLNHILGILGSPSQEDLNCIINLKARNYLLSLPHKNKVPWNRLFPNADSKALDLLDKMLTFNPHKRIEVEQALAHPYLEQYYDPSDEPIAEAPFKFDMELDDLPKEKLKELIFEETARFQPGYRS

## O=C(O)c1cn(-c2ccc(F)cc2)c2cc(N3CCNCC3)c(F)cc2c1=O [SARAFLOXACIN]
[1]
  IC50: Not Active
  Ki: Not Active
[2]
  IC50: Not Active
[3]
  IC50: Not Active
  Ki: Not Active
[4]
  IC50: Not Active
  Ki: Not Active
[5]
  IC50: Not Active
[6]
  IC50: Not Active

## CC(C)NCC(O)c1ccc(NS(C)(=O)=O)cc1 (configuration not stated) [SOTALOL]
[1]
  IC50: Not Active
  Ki: Not Active
[2]
  IC50: Not Active
[3]
  IC50: Not Active
  Ki: Not Active
[4]
  IC50: Not Active
  Ki: Not Active
[5]
  IC50: Not Active
[6]
  IC50: Not Active

## O.O.O.O.O.O.[Cl-].[Cl-].[Sr+2] [STRONTIUM CHLORIDE HEXAHYDRATE]
[1]
  IC50: Not Active
  Ki: Not Active
[2]
  IC50: Not Active
[3]
  IC50: Not Active
  Ki: Not Active
[4]
  IC50: Not Active
  Ki: Not Active
[5]
  IC50: Not Active
[6]
  IC50: Not Active

## O=C1C(CC[S+]([O-])c2ccccc2)C(=O)N(c2ccccc2)N1c1ccccc1 (configuration not stated) [SULFINPYRAZONE]
[1]
  IC50: Not Active
  Ki: Not Active
[2]
  IC50: Not Active
[3]
  IC50: Not Active
  Ki: Not Active
[4]
  IC50: Not Active
  Ki: Not Active
[5]
  IC50: Not Active
[6]
  IC50: Not Active

## NC(=O)N1C(=O)/C(=C(\O)c2cccs2)c2cc(Cl)ccc21 [TENIDAP]
[1]
  IC50: Not Active
  Ki: Not Active
[2]
  IC50: Not Active
[3]
  IC50: Not Active
  Ki: Not Active
[4]
  IC50: Not Active
  Ki: Not Active
[5]
  IC50: Not Active
[6]
  IC50: Not Active

## COc1cc2nc(N3CCN(C(=O)C4CCCO4)CC3)nc(N)c2cc1OC (configuration not stated) [TERAZOSIN]
[1]
  IC50: Not Active
  Ki: Not Active
[2]
  IC50: Not Active
[3]
  IC50: Not Active
  Ki: Not Active
[4]
  IC50: Not Active
  Ki: Not Active
[5]
  IC50: Not Active
[6]
  IC50: Not Active

## CN(C/C=C/C#CC(C)(C)C)Cc1cccc2ccccc12 [TERBINAFINE]
[1]; read-out: IC50
  IC50: 35.4 nM
[1]; read-out: Ki
  Ki: 21.8 nM
[2]
  IC50: Not Active
[3]
  IC50: Not Active
  Ki: Not Active
[4]
  IC50: Not Active
  Ki: Not Active
[5]
  IC50: Not Active
[6]
  IC50: Not Active

## CCCCNc1ccc(C(=O)OCCN(C)C)cc1 [TETRACAINE]
[1]
  IC50: Not Active
  Ki: Not Active
[2]
  IC50: Not Active
[3]
  IC50: Not Active
  Ki: Not Active
[4]
  IC50: Not Active
  Ki: Not Active
[5]
  IC50: Not Active
[6]
  IC50: Not Active
